1 compound from US20070104743A1, “Formulations of fispemifene” (HORMOS MEDICAL LTD., priority 2005, published 2007) can be followed below.

The nature of data set [1]: Serum concentration of fispemifene in monkeys after administration in two different vehicles. The class given is in vivo. Particulars: two female Cynomolgus monkeys, single oral dose 500 mg/kg, LC-MS/MS. As to the method:
Serum concentration of fispemifene in monkeys after administration of fispemifene in two different vehicles
A pilot study on exposure of fispemifene in two female Cynomolgus monkeys ( #05084 and #06170) was carried out. Fispemifene was administered by single oral dosing of 500 mg/kg in two different vehicles, 0.5% carboxymethyl cellulose in water (CMC), and in corn oil. Blood samples were collected 0, 1, 2, 4, 6, 8, 12, 16 and 24 hours after dosing. Concentrations of fispemifene were determined using LC-MS/MS.

The next data set in a line: Solubility in water. The format is physicochemical.

Turning to `OCCOCCOc1ccc(/C(=C(/CCCl)c2ccccc2)c2ccccc2)cc1` [Fispemifene, (Z)-2-{2-[4-(4-chloro-1,2-diphenylbut-1-enyl)phenoxy]ethoxy}ethanol], in data set [1] (CMC or corn oil vehicle, samples 1-24 h), the “fispemifene quantifiable in serum samples after drug administration” value is “quantifiable in all serum samples”. Moreover, in data set [1] (corn oil vs 0.5% carboxymethyl cellulose in water, 0-24 h), the “serum fispemifene concentration, corn oil vehicle relative to 0.5% CMC in aqueous solution” value is on record as “more than 10 fold”. Besides, the solubility in water entry in the data set “Solubility in water” is listed as “only sparingly soluble”.
